Test [1] has as its target T1, Peroxisome proliferator-activated receptor alpha (Homo sapiens, UniProt Q07869).
T1 sequence (Q07869 whole entry): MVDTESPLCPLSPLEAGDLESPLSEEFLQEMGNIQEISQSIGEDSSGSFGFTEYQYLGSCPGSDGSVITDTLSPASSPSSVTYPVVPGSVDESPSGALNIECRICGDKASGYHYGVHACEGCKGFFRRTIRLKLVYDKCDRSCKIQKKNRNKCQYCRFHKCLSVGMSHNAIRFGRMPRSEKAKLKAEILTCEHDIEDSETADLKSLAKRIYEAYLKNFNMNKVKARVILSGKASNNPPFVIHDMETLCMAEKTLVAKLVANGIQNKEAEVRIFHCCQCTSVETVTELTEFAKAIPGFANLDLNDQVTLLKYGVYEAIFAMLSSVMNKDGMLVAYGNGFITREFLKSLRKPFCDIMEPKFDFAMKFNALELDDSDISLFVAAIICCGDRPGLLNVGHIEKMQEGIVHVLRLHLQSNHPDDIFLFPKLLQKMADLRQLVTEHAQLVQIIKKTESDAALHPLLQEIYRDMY
Kind of test: Agonist activity at PPARalpha in human HepG2 cells. The format is cell-based.

In test [2] the target is T1, Peroxisome proliferator-activated receptor alpha. Kind of test: Agonist activity at PPARalpha (unknown origin) assessed as transcriptional activation.
In test [3] the target is T2, Peroxisome proliferator-activated receptor gamma (Homo sapiens, UniProt P37231).
T2 sequence (P37231 whole entry): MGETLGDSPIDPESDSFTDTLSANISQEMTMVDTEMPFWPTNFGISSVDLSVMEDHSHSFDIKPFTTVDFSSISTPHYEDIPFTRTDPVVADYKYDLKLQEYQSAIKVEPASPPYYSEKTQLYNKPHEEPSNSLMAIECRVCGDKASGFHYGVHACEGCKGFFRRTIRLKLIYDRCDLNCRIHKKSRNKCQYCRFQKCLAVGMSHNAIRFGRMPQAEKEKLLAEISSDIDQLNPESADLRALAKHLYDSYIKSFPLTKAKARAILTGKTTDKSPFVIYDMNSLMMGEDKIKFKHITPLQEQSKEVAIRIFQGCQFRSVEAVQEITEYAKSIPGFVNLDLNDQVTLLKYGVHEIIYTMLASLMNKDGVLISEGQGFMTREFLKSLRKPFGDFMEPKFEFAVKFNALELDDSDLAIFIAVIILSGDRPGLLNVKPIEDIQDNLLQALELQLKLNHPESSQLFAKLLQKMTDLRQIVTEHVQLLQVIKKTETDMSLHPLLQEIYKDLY
The test can be described thus: Agonist activity at PPARgamma (unknown origin) assessed as transcriptional activation.

Test [4] addresses T1, Peroxisome proliferator-activated receptor alpha. Kind of test: Agonist activity at PPARalpha (unknown origin).
The subject of test [5] is Hepatocyte. Kind of test: Anti-fibrosis effect in CCl4 induced lipid peroxidation in rat hepatocytes by measuring MDA formation incubated for 1 hr by TBARS method. The class given is functional, cell-based.
Test [6] deals with C-C chemokine receptor type 5 (Homo sapiens, UniProt P51681). The test can be described thus: Antagonist at CCR5 (unknown origin) assessed as inhibitory constant.
C-C chemokine receptor type 5, sequence (P51681 whole entry): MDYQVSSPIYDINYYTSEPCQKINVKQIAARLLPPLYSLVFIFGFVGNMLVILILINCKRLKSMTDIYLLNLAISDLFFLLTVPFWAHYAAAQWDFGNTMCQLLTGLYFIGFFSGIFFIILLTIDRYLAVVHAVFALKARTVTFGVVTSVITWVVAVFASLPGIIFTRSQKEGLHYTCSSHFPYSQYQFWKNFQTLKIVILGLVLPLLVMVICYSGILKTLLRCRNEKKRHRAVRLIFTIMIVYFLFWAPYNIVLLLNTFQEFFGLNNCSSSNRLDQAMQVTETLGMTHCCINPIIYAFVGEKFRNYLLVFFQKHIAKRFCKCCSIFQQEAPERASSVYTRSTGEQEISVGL
The test system of test [7] is Human immunodeficiency virus 1. The test can be described thus: Antiviral activity against M tropic HIV-1 Ba-L infected in human HeLa-MAGI-CCR5 cells assessed as inhibition of viral replication. The format is functional, organism-based. As to conditions: Human immunodeficiency virus 1, Ba-L.
Test [8] concerns the target T3, Peroxisome proliferator-activated receptor alpha (Mus musculus, UniProt P23204).
T3 sequence (P23204 whole entry): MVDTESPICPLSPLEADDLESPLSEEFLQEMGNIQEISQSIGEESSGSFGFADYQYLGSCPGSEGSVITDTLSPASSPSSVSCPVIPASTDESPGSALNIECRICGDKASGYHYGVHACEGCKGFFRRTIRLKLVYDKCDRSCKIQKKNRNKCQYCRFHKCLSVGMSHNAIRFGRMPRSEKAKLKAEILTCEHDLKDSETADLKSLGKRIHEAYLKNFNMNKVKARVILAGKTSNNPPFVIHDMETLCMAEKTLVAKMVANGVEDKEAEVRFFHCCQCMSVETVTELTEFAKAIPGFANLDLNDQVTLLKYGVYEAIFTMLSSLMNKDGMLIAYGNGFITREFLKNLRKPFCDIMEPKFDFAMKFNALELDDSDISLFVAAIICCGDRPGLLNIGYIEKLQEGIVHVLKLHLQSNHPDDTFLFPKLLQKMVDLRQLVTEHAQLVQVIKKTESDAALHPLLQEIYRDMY
The test can be described thus: Agonist activity at mouse PPARalpha.

Test [9] addresses T4, Peroxisome proliferator-activated receptor delta (Homo sapiens, UniProt Q03181).
T4 sequence (Q03181 whole entry): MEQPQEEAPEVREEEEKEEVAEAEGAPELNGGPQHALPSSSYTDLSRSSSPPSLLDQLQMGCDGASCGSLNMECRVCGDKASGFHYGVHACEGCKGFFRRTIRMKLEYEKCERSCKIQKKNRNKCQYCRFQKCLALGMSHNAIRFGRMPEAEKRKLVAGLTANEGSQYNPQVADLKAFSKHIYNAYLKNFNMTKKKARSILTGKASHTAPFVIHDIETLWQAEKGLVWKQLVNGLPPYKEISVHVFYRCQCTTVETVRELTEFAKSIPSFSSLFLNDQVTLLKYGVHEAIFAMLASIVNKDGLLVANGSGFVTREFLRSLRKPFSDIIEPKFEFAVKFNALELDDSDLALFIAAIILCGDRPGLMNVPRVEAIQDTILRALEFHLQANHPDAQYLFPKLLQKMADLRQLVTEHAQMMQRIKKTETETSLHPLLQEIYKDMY
Kind of test: Agonist activity at PPARdelta (unknown origin).

For test [10], the target named is T1, Peroxisome proliferator-activated receptor alpha. The test can be described thus: Binding affinity to PPARalpha (unknown origin).

SMILES strings stand for the structures.

For `CCO[C@@H](Cc1ccc(OCCn2c(C)ccc2-c2ccc(SC)cc2)cc1)C(=O)O` [SAROGLITAZAR], the EC50 in test [1] turned out to be 0.65 pM.

Turning to `CSc1ccc(C(=O)/C=C/c2cc(C)c(OC(C)(C)C(=O)O)c(C)c2)cc1` [ELAFIBRANOR], the figures for the half-maximal effective concentration (EC50) in [2] and in test [3] were 0.045 µM and 0.175 µM, respectively.

For `Cc1ccc(C)c(OCCCC(C)(C)C(=O)O)c1` [GEMFIBROZIL], the EC50 in [4] was 15.2 µM.

As to `O=C(/C=C/c1ccc(O)c2c1[C@@H](C(=O)O[C@H](Cc1ccc(O)c(O)c1)C(=O)O)[C@H](c1ccc(O)c(O)c1)O2)O[C@H](Cc1ccc(O)c(O)c1)C(=O)O`, the concentration for half-maximal inhibition (IC50) in [5] is 2750 µM.

Take `Cc1ccc(-c2ccc3c(c2)C=C(C(=O)Nc2ccc(C[N+](C)(C)C4CCOCC4)cc2)CCC3)cc1`: the Ki in [6] turned out to be 0.0011 µM. In test [7], the half-maximal effective concentration (EC50) was determined as 0.0012 µM and the EC90 came out at 0.0057 µM.

As to `CC(C)(Oc1ccc(CCNC(=O)c2ccc(Cl)cc2)cc1)C(=O)O` [BEZAFIBRATE], a half-maximal effect in [8] (EC50) was put at 50 µM.

`CCOC(=O)C(C)(C)Oc1ccc(Cl)cc1` [CLOFIBRATE]: the EC50 in test [8] is 55 µM.

Compound `CCCc1c(OCCCOc2ccc(OCC(=O)O)cc2)ccc(C(C)=O)c1O` showed a 50% effective concentration (EC50) in [9] of 0.05 µM.

As to `COc1ccc(Oc2cc(N(C)CCOc3ccc(CC4SC(=O)NC4=O)cc3)ncn2)cc1` (configuration not stated) [LOBEGLITAZONE], in [10], a half-maximal effect (EC50) was put at 20 µM.

The values above are taken from ChEMBL document CHEMBL5260846, “Emerging targets and potential therapeutic agents in non-alcoholic fatty liver disease treatment” (Eur J Med Chem, 2020).
